The values that follow come from paper PMC5125025 (Science (New York, N.Y.), 2015).

For experiment [1], the system named is RsTSPO WT. The conditions noted are these: cited from earlier work.
Experiment [2] has as its target RsTSPO A139T mutant (Cereibacter sphaeroides, UniProt Q9RFC8, A139T). In words: Ligand binding affinity of purified RsTSPO A139T mutant. On the set-up: species or system Rhodobacter sphaeroides.

The Kd is the free concentration of one partner at which half of the binding sites on the other are occupied at equilibrium, for simple one-to-one binding. The low end stands for higher affinity, the high end for lower affinity.

RsTSPO A139T mutant, sequence (Q9RFC8 whole entry A139T): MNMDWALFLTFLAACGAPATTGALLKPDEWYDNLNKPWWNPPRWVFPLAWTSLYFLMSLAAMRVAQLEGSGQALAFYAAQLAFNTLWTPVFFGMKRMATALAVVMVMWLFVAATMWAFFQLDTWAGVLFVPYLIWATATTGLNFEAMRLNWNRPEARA

Regarding `CC(C)CCC[C@@H](C)[C@H]1CC[C@H]2[C@@H]3CC=C4C[C@@H](O)CC[C@]4(C)[C@H]3CC[C@]12C` [cholesterol], in experiment [1], the “affinities of RsTSPO for ligands (range in words)” value (from here on “affinities of RsTSPO for ligands”) is “high nanomolar to micromolar range”. This compound also showed a Kd in experiment [2] of more than 300 µM.

As to `CCC(C)N(C)C(=O)c1cc2ccccc2c(-c2ccccc2Cl)n1` (stereo not drawn) [PK11195], the “affinities of RsTSPO for ligands” value in experiment [1] is “high nanomolar to micromolar range”. Also, binding in experiment [2] was characterised by a dissociation constant (Kd) of 42 ± 4 µM.

In the case of `C=CC1=C(C)c2cc3[nH]c(cc4nc(cc5[nH]c(cc1n2)c(C)c5CCC(=O)O)C(CCC(=O)O)=C4C)c(C)c3C=C` [PpIX, protoporphyrin IX], the “affinities of RsTSPO for ligands” value in experiment [1] is “high nanomolar to micromolar range”. Also, in experiment [2], the Kd is 1.9 ± 0.3 µM.
